{
  "source": "patent US20260327655A1",
  "about": "“SMALL-MOLECULE REGULATED ALTERNATIVE SPLICING” (priority 2023, published 2026)",
  "key": {"[1]": {"tested_on": "RS1-10 minigene (Firefly Luciferase), HEK-293T cells", "assay": "Luciferase induction assay, RS1-10 with splice modulator compounds in HEK-293T cells", "format": "cell-based", "conditions": "Homo sapiens, 18 hours, n of 3, read-out: Mean fold-induction of luciferase (relative to vehicle control)"}, "[2]": {"tested_on": "RS1-10", "assay": "Dose-response profiling assay, RS1-10 Flp-In-293 cell line", "format": "cell-based", "conditions": "18 hours, FIGS. 9D-9F", "protocol": "Single-copy insertion of an switch construct and subsequent cell-line generation was performed in Flp-In-293 cells according to manufacturer's protocols. The RS1-10 sequence fused to a Firefly Luciferase gene was cloned into a Flp-In compatible pcDNA5/FRT expression vector with a CMV promoter and BGH polyadenylation signal. Resulting Flp-In cell line carried a single-copy expression cassette (RSwitch-controlled) integrated into the genome. The RS1-10 Flp-In cell line was cultured in DMEM+10% FBS, collected after trypsinization, and then dispensed into 96-well plates (cell culture-treated). Each well of the plate was seeded with 1.0×10^5 cells in 100 μL culture medium. Subsequently, either DMSO vehicle or a splice modulator compound at specified doses was added to the wells of the plate. Triplicate wells were used for each condition tested in the experiment. Plates were then incubated for 18 hours in a tissue culture incubator (5% CO2, 37° C.). Endpoint analysis was performed by adding 100 uL of a Luciferase substrate, such as Steady-Luc Firefly Luciferase substrate, to each well of the assay plate. The liquid contents of each was transferred to a 96-well plate, mixed again for 2 min on an orbital shaker, and incubated at room temperature for 5 min. Finally, the luminescent signal from each well was measured with a plate reader. Each plotted data point on a graph in a figure represents a mean of 3 wells+/−standard deviation normalized to vehicle controls. A nonlinear regression curve fit of the plotted data points was generated in graphing software."}},
  "data": [
    {"smiles": "CCN1CC(c2ccc(-c3ccc(-c4ccc5nn(C)cc5c4)cc3O)nn2)C1", "note": "[Compound 24A, 2-[6-(1-ethylazetidin-3-yl)pyridazin-3-yl]-5-(2-methyl-2H-indazol-5-yl)phenol]", "values": [
      {"measurement": "fold induction at 0.1 µM", "setting": "[1]; RS1-10, 100 nM", "value": 74.1},
      {"measurement": "fold induction at 1 µM", "setting": "[1]; RS1-10, 1,000 nM", "value": 84},
      {"measurement": "fold-induction of luciferase signal, dose response", "setting": "[2]", "value": "increase in fold-induction of luciferase signal with increasing concentrations"}
    ]}
  ]
}
